Results from patent US20190315771A1, “NOVEL 2-ACYLAMINOTHIAZOLE DERIVATIVE AND PREPARATION METHOD THEREFOR AND USE THEREOF” (SICHUAN KELUN-BIOTECH BIOPHARMACEUTICAL CO., LTD., priority 2016, published 2019).

Assays:
human TPOR = target: T1, human TPOR (Homo sapiens, UniProt P40238); assay: Proliferation of BAF3/TPOR cells (MTS method, OD490); format: cell-based, mouse; conditions: BAF3 cells stably expressing human TPOR, cultured with compound 24 h
T1 construct: expressed in transfected cells; host or cells: mouse BAF3 cells
T1 sequence (P40238 26-635): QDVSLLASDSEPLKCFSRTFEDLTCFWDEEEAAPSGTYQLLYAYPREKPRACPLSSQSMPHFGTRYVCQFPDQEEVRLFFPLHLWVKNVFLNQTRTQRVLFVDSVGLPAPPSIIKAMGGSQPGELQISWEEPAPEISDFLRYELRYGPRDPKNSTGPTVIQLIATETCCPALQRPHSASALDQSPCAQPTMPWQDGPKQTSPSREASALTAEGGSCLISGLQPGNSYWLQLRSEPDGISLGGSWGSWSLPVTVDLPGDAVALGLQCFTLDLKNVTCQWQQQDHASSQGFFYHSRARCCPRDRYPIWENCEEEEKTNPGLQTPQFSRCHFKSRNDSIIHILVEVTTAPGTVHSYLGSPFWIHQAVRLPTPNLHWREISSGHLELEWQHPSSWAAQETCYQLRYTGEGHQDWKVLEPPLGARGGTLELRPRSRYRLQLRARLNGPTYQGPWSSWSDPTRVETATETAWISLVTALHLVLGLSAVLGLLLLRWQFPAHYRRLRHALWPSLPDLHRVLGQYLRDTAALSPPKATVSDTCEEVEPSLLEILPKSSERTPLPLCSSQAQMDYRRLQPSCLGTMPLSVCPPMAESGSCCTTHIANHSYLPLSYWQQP
Description: The TPO mimetic compound was synthesized in vitro, and the compound acted on the TPO receptor (TPOR) on the cell to stimulate cell proliferation and differentiation. The OD490 value was detected by the MTS method, and the more the number of cells, the larger the OD value, thereby detecting the response of the compound to cell proliferation and differentiation. The agonist concentration at which the increased signal arrived at the highest level was Emax, and the concentration of the compound at which the increased signal arrived at 50% of the signal of Emax was EC50. The activity of the compound was determinable by EC50, and the smaller the EC50, the higher the activity of the compound.
Mouse […] BAF3 stably expressing human TPOR were cultured in 1640 medium containing 10% FBS. On the day of the assay, the cells were counted and seeded in a 96-well plate at 1×10^4 cells/50 μL. 50 μL of different concentrations of the tested compound were added to the wells to a final concentration of 10000 nM, 3000 nM, 300 nM, 30 nM, 3 nM, 0.3 nM, 0.03 nM, 0.003 nM, 0.0003 nM, and the final concentration of DMSO was 1%. After the cells were cultured with the compound for 24 h at 37° C. in a 5% CO2 incubator, 10 μL of detection reagent (Promega, Cell Titer 96® Aqueous One Solution) was added. After mixing, the resulting mixture was incubated for 3 h in the incubator. The OD 490 was detected using a multifunctional automatic microplate reader, and the EC50 was fitted using GraphPad Prism 5 software.

hERG potassium channel = hERG potassium channel (Homo sapiens, UniProt Q12809); assay: hERG test, electrophysiological manual patch clamp; format: cell-based; conditions: for hERG potassium channel inhibition (judgement in words): conclusion from Table 2; for IC50: manual patch clamp, IC50 >10 μM judged as no inhibitory effect on hERG
Description: In cardiomyocytes, the potassium channel encoded by hERG (human Ether-a-go-go Related Gene) mediated the delayed rectifier potassium current (lKr). The IKr inhibition was the most important mechanism for drug-induced QT prolongation and induction of arrhythmia.
The electrophysiological manual patch clamp was used to detect the effect of the tested compound on the hERG potassium channel.

hERG potassium channel, sequence (Q12809 whole entry): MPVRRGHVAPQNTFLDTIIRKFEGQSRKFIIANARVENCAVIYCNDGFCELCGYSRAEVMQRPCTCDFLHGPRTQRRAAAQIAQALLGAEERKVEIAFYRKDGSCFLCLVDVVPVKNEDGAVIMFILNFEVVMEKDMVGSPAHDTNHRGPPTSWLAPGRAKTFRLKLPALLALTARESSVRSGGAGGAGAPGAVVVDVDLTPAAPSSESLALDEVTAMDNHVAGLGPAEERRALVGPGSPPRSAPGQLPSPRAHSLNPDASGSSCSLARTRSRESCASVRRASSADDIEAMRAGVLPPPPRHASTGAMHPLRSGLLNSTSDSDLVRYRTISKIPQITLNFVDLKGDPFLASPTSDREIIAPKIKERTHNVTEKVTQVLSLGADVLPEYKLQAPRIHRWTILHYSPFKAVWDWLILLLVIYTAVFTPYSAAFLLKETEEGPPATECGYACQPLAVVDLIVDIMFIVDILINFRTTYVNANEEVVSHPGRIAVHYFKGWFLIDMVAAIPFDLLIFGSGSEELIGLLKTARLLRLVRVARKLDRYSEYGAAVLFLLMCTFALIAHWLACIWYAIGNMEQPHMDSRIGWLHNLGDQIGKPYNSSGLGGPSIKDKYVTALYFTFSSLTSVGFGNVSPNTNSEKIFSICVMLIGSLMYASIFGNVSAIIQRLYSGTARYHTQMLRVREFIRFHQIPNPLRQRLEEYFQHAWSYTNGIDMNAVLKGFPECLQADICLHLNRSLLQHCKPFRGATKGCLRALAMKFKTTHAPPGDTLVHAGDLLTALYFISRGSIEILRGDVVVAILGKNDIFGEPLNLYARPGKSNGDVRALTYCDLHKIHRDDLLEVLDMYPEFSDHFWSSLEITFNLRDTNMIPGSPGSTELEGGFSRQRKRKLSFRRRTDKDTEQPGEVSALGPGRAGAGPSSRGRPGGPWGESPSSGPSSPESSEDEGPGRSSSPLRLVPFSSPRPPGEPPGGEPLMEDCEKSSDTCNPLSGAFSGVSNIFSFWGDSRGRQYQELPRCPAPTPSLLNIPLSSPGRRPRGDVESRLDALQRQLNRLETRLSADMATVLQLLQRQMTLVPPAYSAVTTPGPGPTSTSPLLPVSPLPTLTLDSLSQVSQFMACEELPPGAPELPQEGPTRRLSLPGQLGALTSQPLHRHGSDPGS

Compound | EC50 (human TPOR) [nM] | hERG potassium channel inhibition (judgement in words) (hERG potassium channel) | IC50 (hERG potassium channel) [nM]
O=C(Nc1nc(-c2cc(Cl)cs2)c(N2CC3CCN(C4CCC4)C3C2)s1)c1cnc(N2CCC(C(=O)O)CC2)c(Cl)c1 (centres unmarked) [Example 2, 1-(3-chloro-5-((4-(4-chlorothiophen-2-yl)-5-(1-cyclobutyl-hexahydropyrrolo[3,4-b]-pyrrol-5(1H)-yl)-thiazol-2-yl)-carbamoyl)-pyridin-2-yl)-piperidine-4-carboxylic acid] | 0.21 | – | –
C/C(=C\c1c(Cl)cc(C(=O)Nc2nc(-c3cc(Cl)cs3)c(N3CC4CCN(C5CCCCCC5)C4C3)s2)cc1Cl)C(=O)O (centres unmarked) [Example 44, (E)-3-(4-((5-(1-cycloheptyl-hexahydropyrrolo[3,4-b]pyrrol-5(1H)-yl)-4-(4-chlorothiophen-2-yl)-thiazol-2-yl)-carbamoyl)-2,6-dichlorophenyl)-2-methylacrylic acid] | 0.13 | – | –
O=C(Nc1nc(-c2cc(Cl)cs2)c(N2CC3CCC2CN3C2CCCCC2)s1)c1cnc(N2CCC(C(=O)O)CC2)c(Cl)c1 (centres unmarked) [Example 29, 3′-chloro-5′-(4-(4-chlorothiophen-2-yl)-5-(5-cyclohexyl-2,5-diazabicyclo[2.2.2]octan-2-yl)-thiazol-2-carbamoyl)-3,4,5,6-tetrahydro-2H-[1,2′]bipyridine-4-carboxylic acid] | 0.89 | – | –
C/C(=C\c1c(Cl)cc(C(=O)Nc2nc(-c3cc(Cl)cs3)c(N3CC4CCN(C5CC(F)(F)C5)C4C3)s2)cc1Cl)C(=O)O (centres unmarked) [Example 38, (E)-3-(4-((5-(1-(3,3-difluorocyclobutyl)-hexahydropyrrolo[3,4-b]pyrrol-5(1H)-yl)-4-(4-chlorothiophen-2-yl)-thiazol-2-yl)-carbamoyl)-2,6-dichlorophenyl)-2-methylacrylic acid] | 0.43 | – | –
O=C(Nc1nc(-c2cc(Cl)cs2)c(N2CC3CCN(C4C[C@H]5CC[C@@H]4C5)C3C2)s1)c1cnc(N2CCC(C(=O)O)CC2)c(Cl)c1 (stereo in doubt) [Example 9, 1-[3-chloro-5-((4-(4-chlorothiophen-2-yl)-5-(1-(bicyclo[2.2.1]hept-2-yl)-hexahydropyrrolo[3,4-b]pyrrol-5(1H)-yl)thiazol-2-yl)carbamoyl)pyridin-2-yl]piperidine-4-carboxylic acid] | 0.21 | – | –
O=C(Nc1nc(-c2cc(Cl)cs2)c(N2CC3CCN(C4CCCCC4)C3C2)s1)c1cnc(N2CCC(C(=O)O)CC2)c(Cl)c1 (centres unmarked) [Example 5, 1-(3-chloro-5-((4-(4-chlorothiophen-2-yl)-5-(1-cyclohexyl-hexahydropyrrolo[3,4-b]pyrrol-5(1H)-yl)-thiazol-2-yl)-carbamoyl)-pyridin-2-yl)-piperidine-4-carboxylic acid] | 0.08 | – | –
O=C(Nc1nc(-c2cc(Cl)cs2)c(N2CC3CCN(C4CCCCCC4)C3C2)s1)c1cnc(N2CCC(C(=O)O)CC2)c(Cl)c1 (centres unmarked) [Example 8, 1-(3-chloro-5-((4-(4-chlorothiophen-2-yl)-5-(1-cycloheptyl-hexahydropyrrolo[3,4-b]pyrrol-5(1H)-yl)-thiazol-2-yl)-carbamoyl)-pyridin-2-yl)-piperidine-4-carboxylic acid] | 1.11 | – | –
CCCCCCO[C@@H](C)c1cccc(-c2csc(NC(=O)c3cc(Cl)c(/C=C(\C)C(=O)O)c(Cl)c3)n2)c1OC [Lusutrombopag, reference compound] | 1.93 | significant cardiac hERG potassium channel inhibition | 2370
C/C(=C\c1c(Cl)cc(C(=O)Nc2nc(-c3cccc(C(F)(F)F)c3)c(N3CC4CCN(C5CCCCC5)C4C3)s2)cc1Cl)C(=O)O (centres unmarked) [Example 35, (E)-3-(2,6-dichloro-4-(5-(1-cyclohexyl-hexahydropyrrolo[3,4-b]pyrrol-5-yl)-4-(3-trifluoromethylphenyl)-thiazol-2-carbamoyl)-phenyl)-2-methyl-acrylic acid] | 0.57 | – | –
O=C(Nc1nc(-c2cc(Cl)cs2)c(N2CC3CCN(C4[C@H]5C[C@@H]6C[C@@H](C[C@H]4C6)C5)C3C2)s1)c1cnc(N2CCC(C(=O)O)CC2)c(Cl)c1 (stereo partly drawn) [Example 10, 1-(3-chloro-5-((4-(4-chlorothiophen-2-yl)-5-(1-(1R,3R,5R,7R)-adamantanyl-hexahydropyrrolo[3,4-b]pyrrol-5(1H)-yl)-thiazol-2-yl)carbamoyl)-pyridin-2-yl)-piperidine-4-carboxylic acid] | 0.1 | – | –
C/C(=C\c1c(Cl)cc(C(=O)Nc2nc(-c3cc(Cl)cs3)c(N3CCC4C(CCN4C4CCCCC4)C3)s2)cc1Cl)C(=O)O (centres unmarked) [Example 48] | 0.6 | – | –

The next lines start with results.

EC50 (human TPOR) [nM] | Compound | hERG potassium channel inhibition (judgement in words) (hERG potassium channel) | IC50 (hERG potassium channel) [nM]
0.34 | C/C(=C\c1c(Cl)cc(C(=O)Nc2nc(-c3cc(Cl)cs3)c(N3CC4CCN(C5CCC5)C4C3)s2)cc1Cl)C(=O)O (centres unmarked) [Example 37, (E)-3-(2,6-dichloro-4-((4-(4-chlorothiophen-2-yl)-5-(1-cyclobutyl-hexahydropyrrolo[3,4-b]pyrrol-5(1H)-yl)-thiazol-2-yl)-carbamoyl)-phenyl)-2-methylacrylic acid] | – | –
0.05 | C/C(=C\c1c(Cl)cc(C(=O)Nc2nc(-c3cc(Cl)cs3)c(N3C[C@H]4CCN(C5[C@H]6C[C@@H]7C[C@@H](C[C@H]5C7)C6)[C@H]4C3)s2)cc1Cl)C(=O)O (stereo partly drawn) [Example 51, (E)-3-(4-((5-((3aR,6aR)-1-((1R,3R,5R,7R)-adamantan-2-yl)hexahydropyrrolo[3,4-b]pyrrol-5(1H)-yl)-4-(4-chlorothiophen-2-yl)thiazol-2-yl)carbamoyl)-2,6-dichlorophenyl)-2-methylacrylic acid] | no hERG inhibition | > 30000
0.13 | C/C(=C\c1c(Cl)cc(C(=O)Nc2nc(-c3cc(Cl)cs3)c(N3C[C@@H]4CCN(C5[C@H]6C[C@@H]7C[C@@H](C[C@H]5C7)C6)[C@@H]4C3)s2)cc1Cl)C(=O)O (stereo partly drawn) [Example 52, (E)-3-(4-((5-((3aS,6aS)-1-((1S,3S,5S,7S)-adamantan-2-yl)hexahydropyrrolo[3,4-b]pyrrol-5(1H)-yl)-4-(4-chlorothiophen-2-yl)thiazol-2-yl)carbamoyl)-2,6-dichlorophenyl)-2-methylacrylic acid] | – | 7900
0.59 | C/C(=C\c1c(Cl)cc(C(=O)Nc2nc(-c3cc(Cl)cs3)c(N3CC4CCN(C5C[C@H]6CC[C@@H]5C6)C4C3)s2)cc1Cl)C(=O)O (some centres unmarked) [Example 45, (E)-3-(4-((5-(1-(bicyclo[2.2.1]hept-2-yl)-hexahydropyrrolo[3,4-b]pyrrol-5(1H)-yl)-4-(4-chlorothiophen-2-yl)-thiazol-2-yl)-carbamoyl)-2,6-dichlorophenyl)-2-methylacrylic acid] | – | –
0.07 | C/C(=C\c1c(Cl)cc(C(=O)Nc2nc(-c3cc(Cl)cs3)c(N3CC4CCN(C5CCCC5)C4C3)s2)cc1Cl)C(=O)O (centres unmarked) [Example 40, (E)-3-(2,6-dichloro-4-((4-(4-chlorothiophen-2-yl)-5-(1-cyclopentyl-hexahydropyrrolo[3,4-b]pyrrol-5(1H)-yl)-thiazol-2-yl)-carbamoyl)-phenyl)-2-methylacrylic acid] | – | –
0.08 | C/C(=C\c1c(Cl)cc(C(=O)Nc2nc(-c3cc(Cl)cs3)c(N3CC4CCN(C5[C@H]6C[C@@H]7C[C@@H](C[C@H]5C7)C6)C4C3)s2)cc1Cl)C(=O)O (stereo partly drawn) [Example 46, (E)-3-(4-((5-(1-((1R,3R,5R,7R)-adamantan-2-yl)hexahydropyrrolo[3,4-b]pyrrol-5(1H)-yl)-4-(4-chlorothiophen-2-yl)thiazol-2-yl)carbamoyl)-2,6-dichlorophenyl)-2-methylacrylic acid] | – | –
0.1 | C/C(=C\c1c(Cl)cc(C(=O)Nc2nc(-c3cc(Cl)cs3)c(N3CC4CCN(C5CCCCC5)C4C3)s2)cc1Cl)C(=O)O (centres unmarked) [Example 36, (E)-3-(2,6-dichloro-4-((4-(4-chlorothiophen-2-yl)-5-(1-cyclohexyl-hexahydropyrrolo[3,4-b]pyrrol-5(1H)-yl)-thiazol-2-yl)-carbamoyl)-phenyl)-2-methylacrylic acid] | – | –
